From paper PMC8131206 (Nature biomedical engineering, 2021)
Where no end group is shown, it is not given here.

Tests used:
Mtb = assay type: cell-based, Mycobacterium tuberculosis
S. aureus (MS) NRS72 = conditions: MS) NRS72, 24 h
S. aureus (MR) USA300 = conditions: USA300, 24 h
H. influenzae TD-4 = conditions: TD-4, 24 h
M. smegmatis Mc^2 155 = conditions: Mc^2 155, 48 h
[1] = test system: M. tuberculosis H37Rv (virulent); conditions: 96 h
[2] = target: the molecule itself; test: negative-stain TEM + circular dichroism

For `COc1c(N2C[C@@H]3CCCN[C@@H]3C2)c(F)cc2c(=O)c(C(=O)O)cn(C3CC3)c12` [moxifloxacin], the “Combinatorial effect with MAD1 (FIC)” value (Mtb) was “synergizes”.

KRWHWWRRHWVVW-NH2 [MAD1] was tested, and the MIC (S. aureus (MS) NRS72) was >80 (20) µM, the MIC (S. aureus (MR) USA300) was >80 (20) µM and the MIC (H. influenzae TD-4) was 80 (20) µM. For the same molecule, the MIC (M. smegmatis Mc^2 155) was 5(5) µM and the MIC [1] was 5 µM.

KRWHWWRRHWVVW-NH2 [myco-membrane associated disruption 1 (MAD1) peptide]: binds [2].
